Test results taken from paper PMC10897196, “Structure–activity characteristics of phenylalanine analogs selectively transported by L-type amino acid transporter 1 (LAT1)” (Scientific Reports, 2024).
“And” between values parts separate entries of the source, which are not always exact repeats. Equal values may be shown once.

Tests used:
[1] = biological target: T1, human LAT1 (Homo sapiens, UniProt Q01650); experiment: Inhibition of L-[14C]leucine uptake in HEK293-hLAT1 cells; assay type: cell-based; conditions: for Inhibition of LAT1-mediated L-[14C]leucine uptake (in words, rank order): 1 μM L-[14C]leucine, 1 min, compounds at 10, 30, 100 μM
T1 construct: expressed in transfected cells
T1 sequence (Q01650 whole entry, one chain of several): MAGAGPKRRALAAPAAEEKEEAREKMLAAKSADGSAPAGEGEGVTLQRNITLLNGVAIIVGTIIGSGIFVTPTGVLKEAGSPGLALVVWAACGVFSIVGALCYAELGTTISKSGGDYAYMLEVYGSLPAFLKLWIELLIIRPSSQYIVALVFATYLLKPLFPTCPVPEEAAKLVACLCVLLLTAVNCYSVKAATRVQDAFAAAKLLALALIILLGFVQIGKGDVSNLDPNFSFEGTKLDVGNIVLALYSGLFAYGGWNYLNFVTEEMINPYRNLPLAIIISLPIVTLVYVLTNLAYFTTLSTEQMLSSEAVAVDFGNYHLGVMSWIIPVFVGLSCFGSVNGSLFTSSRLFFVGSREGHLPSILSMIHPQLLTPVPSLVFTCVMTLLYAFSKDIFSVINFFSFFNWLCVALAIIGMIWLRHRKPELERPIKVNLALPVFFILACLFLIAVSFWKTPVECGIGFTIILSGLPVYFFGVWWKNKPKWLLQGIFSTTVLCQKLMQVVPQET
Description: (§1) In this study, we used the HEK293 cells stably expressing human LAT1 or human LAT2, which form a heterodimeric complex with endogenous 4F2hc (CD98hc), required for plasma membrane localization. We first explored the impact of halogen group positioning in the benzene ring of Phe (Fig. 1) on its interaction with LAT1 and LAT2. […] We conducted inhibition experiments to measure the uptake of L-[^14C]leucine by LAT1 and L-[^14C]alanine by LAT2 in the presence or absence of Phe derivatives with an iodo group at position 2, 3, or 4 in the benzene ring.
(§2) The inhibition experiments were performed as described previously. HEK293-hLAT1 (1.5 × 10^5 cells/well) or HEK293-hLAT2 (2 × 10^5 cells/well) cells were plated onto poly-D-lysine-coated 24-well plates (Corning, New York, USA). Following a 2-day culture period, the uptake of 1 μM L-[^14C]leucine or L-[^14C]alanine was measured for 1 min in the absence or presence of non-radiolabeled test compounds at concentrations of 10, 30, and 100 μM. Radioactivity was quantified using a β-scintillation counter (LSC-3100; Aloka, Tokyo, Japan), and protein concentrations were determined with a Micro BCA Protein Assay Kit (Thermo Fisher Scientific, Rockford, IL). To calculate Ki values, the concentration-dependent uptake of L-[^14C]leucine or L-[^14C]alanine was analyzed in the presence and absence of test compounds[49]. The data were plotted against substrate concentration and fitted to Michaelis–Menten kinetics. Ki values were derived using nonlinear regression analysis with the enzyme kinetics inhibition module in GraphPad Prism software (Version 10.0.2; GraphPad Software Inc., San Diego, CA, USA).

[2] = Tissue accumulation (plasma, tumor, small intestine) in B16-F10 tumor-bearing mice, HPLC; assay type: in vivo
Method: Female C57BL/6J mice were subcutaneously injected with 2 × 10^6 B16-F10 cells. The cells were prepared in a mixture containing a 1:1 volume ratio of phosphate-buffered saline (PBS) and Matrigel (Corning, New York, USA), with the total injection volume being 200 μL, administered into the dorsal flank. Tumor growth was measured bi-daily using calipers until tumors reached a size of approximately 300 ~ 500 mm^3, at which point they were deemed palpable. […] Blood samples were collected at 30 and 60 min post-administration. Then both the tumors and small intestines were excised and weighed for subsequent analysis by HPLC.
(§3) HPLC analyses were conducted as previously described. In brief, tumors and small intestines were homogenized in ice-cold PBS (3 times the tissue weight, v/w). The homogenates were then centrifuged at 15,000 ×g for 40 min at 4 °C. A 10 μL aliquot of the tissue supernatant or plasma was mixed with 190 μL of acetonitrile (MeCN) to precipitate proteins. This mixture was subsequently centrifuged at 15,000 ×g for 30 min at 4 °C. The resulting supernatant (100 μL) was dried, and the residue was reconstituted in 20 μL of 400 mM sodium borate (pH 8.0). Finally, 5 μL of 40 mM 4-fluoro-7-nitro-2,1,3-benzoxadiazole (NBD-F) in MeCN was added for fluorescence derivatization. HPLC analysis was carried out using a NANOSPACE SI-2 HPLC system (Shiseido, Tokyo, Japan) equipped with a fluorescence detector. […] The mobile phase consisted of MeCN, water, and trifluoroacetic acid (TFA) in a 27.5:72.5:0.05 (v/v/v) ratio, delivered at a flow rate of 200 μL/min.

[3] = Plasma concentration-time profile in normal mice after intravenous administration; assay type: in vivo; conditions: C57BL/6J mice, i.v., 15, 30, 60, 120 min; 2-F-Tyr 15.6 mg/kg, bicyclic-Phe 15 mg/kg
Method: The blood samples were collected at 15, 30, 60, and 120 min post-administration into lithium heparin-coated tubes (BD, New Jersey, USA) and then centrifuged at 1,500 ×g for 10 min at 23 °C. The resulting plasma was stored at −80 °C pending analysis by HPLC.
as §3

[4] = biological target: T1, human LAT1; experiment: Efflux of pre-loaded L-[14C]leucine from HEK293-hLAT1 cells induced by extracellular compounds; assay type: cell-based; conditions: 1 min
Method: (§4) We evaluated the efflux of pre-loaded L-[^14C]leucine from LAT1 and pre-loaded L-[^14C]alanine from LAT2 induced by extracellularly applied compounds.
(§5) Efflux experiments were performed as described previously. Cells cultured 48 h were pre-loaded with 5 μM L-[^14C]leucine or L-[^14C]alanine for 10 min at 37 °C. The cells were then washed, and the efflux was induced by incubating cells for 1 min in either the absence or presence of non-radiolabeled test compounds at indicated concentrations. The efflux time of 1 min fell within the linear range of time-dependent substrate efflux mediated by LAT1 and LAT2 (Supplementary Fig. S2). Following incubation, the medium was collected and radioactivity was measured in both the medium and the cells. Efflux was quantified as the percentage of radioactivity released into the medium, calculated using the formula: radioactivity of medium/(radioactivity of medium + radioactivity of cells) × 100%.
(§6) The kinetic parameters for the efflux of L-[^14C]leucine or L-[^14C]alanine induced by various concentrations of extracellularly-applied test compounds were analyzed. The baseline efflux values—those obtained in the absence of test compounds—were subtracted from the values measured in the presence of the compounds. The resultant data were fitted to Michaelis–Menten kinetics to determine the Km and Vmax by nonlinear regression analysis using “enzyme kinetics-velocity as a function of substrate” module within GraphPad Prism software.

[5] = biological target: T2, human LAT2 (Homo sapiens, UniProt Q9UHI5); experiment: Inhibition of L-[14C]alanine uptake in HEK293-hLAT2 cells; assay type: cell-based; conditions: for Inhibition of LAT2-mediated L-[14C]alanine uptake (in words, rank order): 1 μM L-[14C]alanine, 1 min, compounds at 10, 30, 100 μM
T2 construct: expressed in transfected cells
T2 sequence (Q9UHI5 1-535): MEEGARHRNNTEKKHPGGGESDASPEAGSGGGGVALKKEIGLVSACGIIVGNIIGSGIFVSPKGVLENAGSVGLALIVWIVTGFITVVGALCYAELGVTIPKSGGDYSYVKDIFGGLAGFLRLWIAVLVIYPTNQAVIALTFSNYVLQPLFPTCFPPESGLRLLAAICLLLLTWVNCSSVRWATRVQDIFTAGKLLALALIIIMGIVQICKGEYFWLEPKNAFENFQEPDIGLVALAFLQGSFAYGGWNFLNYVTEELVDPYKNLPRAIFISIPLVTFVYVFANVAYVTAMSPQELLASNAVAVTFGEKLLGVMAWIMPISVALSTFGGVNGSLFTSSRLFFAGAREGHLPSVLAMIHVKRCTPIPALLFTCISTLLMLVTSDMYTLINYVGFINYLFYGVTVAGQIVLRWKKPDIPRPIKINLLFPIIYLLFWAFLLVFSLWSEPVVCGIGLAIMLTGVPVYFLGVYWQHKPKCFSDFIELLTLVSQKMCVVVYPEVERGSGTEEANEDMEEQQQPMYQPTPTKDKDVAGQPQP
T2 sequence (P08195 1-529 partner): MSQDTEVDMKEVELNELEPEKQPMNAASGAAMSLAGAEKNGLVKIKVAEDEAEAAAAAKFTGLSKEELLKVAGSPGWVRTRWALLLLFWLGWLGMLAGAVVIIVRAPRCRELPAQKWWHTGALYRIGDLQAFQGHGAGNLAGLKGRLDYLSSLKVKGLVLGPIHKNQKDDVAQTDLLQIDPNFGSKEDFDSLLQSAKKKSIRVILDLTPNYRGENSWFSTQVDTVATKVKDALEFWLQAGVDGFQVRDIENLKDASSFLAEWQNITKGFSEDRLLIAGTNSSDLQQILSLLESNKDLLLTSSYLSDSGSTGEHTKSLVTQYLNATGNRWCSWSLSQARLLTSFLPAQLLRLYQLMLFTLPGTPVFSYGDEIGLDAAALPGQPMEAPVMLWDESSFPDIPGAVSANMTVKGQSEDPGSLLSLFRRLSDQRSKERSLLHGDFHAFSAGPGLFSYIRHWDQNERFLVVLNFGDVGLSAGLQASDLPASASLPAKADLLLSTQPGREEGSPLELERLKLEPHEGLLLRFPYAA
Description: as §1, §2

[6] = biological target: T2, human LAT2; experiment: Efflux of pre-loaded L-[14C]alanine from HEK293-hLAT2 cells induced by extracellular compounds; assay type: cell-based; conditions: 1 min
Method: as §4, §5, §6

[7] = LAT1, L-[14C]leucine efflux, mean ± S.E.M., n = 3

Inhibition of LAT1-mediated L-[14C]leucine uptake (in words, rank order) [1] | Inhibition of LAT2-mediated L-[14C]alanine uptake (in words, rank order) [5] | Compound | further results
2-Cl-Phe < 2-Br-Phe | – | N[C@@H](Cc1ccccc1Br)C(=O)O [2-Br-Phe] | –
2-F-Phe = Phe | – | N[C@@H](Cc1ccccc1F)C(=O)O [2-F-Phe] | –
3-Cl-Phe < 3-Br-Phe | 3-Cl-Phe < 3-Br-Phe | N[C@@H](Cc1cccc(Br)c1)C(=O)O [3-Br-Phe, 3-Bromo-L-phenylalanine] | –
Phe < 3-F-Phe | Phe < 3-F-Phe | N[C@@H](Cc1cccc(F)c1)C(=O)O [3-F-Phe] | –

The next lines start with the compound.

Compound | Inhibition of LAT1-mediated L-[14C]leucine uptake (in words, rank order) [1] | Inhibition of LAT2-mediated L-[14C]alanine uptake (in words, rank order) [5] | further results
N[C@@H](Cc1ccccc1Cl)C(=O)O [2-Cl-Phe] | Phe < 2-Cl-Phe | – | –
N[C@@H](Cc1ccc(O)cc1F)C(=O)O [2-F-Tyr, 2-Fluoro-L-tyrosine, reference compound] | – | – | Small intestine-to-plasma ratio (I/P) (in words) ([2]; 30 and 60 min after i.v., equimolar doses): considerably higher for 2-F-Tyr than for bicyclic-Phe; Concentration in tumor compared with plasma ([2]; i.v., normalized to tissue weight / plasma volume, 2-F-Tyr at 60 min): higher in the tumor than in plasma; Plasma concentration (in words) [3]: time-dependent decreases in plasma concentration
N[C@@H](Cc1ccccc1I)C(=O)O [2-I-Phe, 2-iodo-L-phenylalanine] | markedly inhibited and 2-Br-Phe < 2-I-Phe and inhibit | 2-I-Phe = Phe | Km [4, 7]: 2.79 ± 0.76 µM; Vmax of efflux (% radioactivity/min) [4, 7]: 7.62 ± 0.30 % radioactivity/min; LAT1-mediated L-[14C]leucine efflux induced (in words) ([4]; compounds at 10, 30, 100 μM): transported by LAT1 as substrates; Ki ([5]; L-[14C]alanine uptake, HEK293-hLAT2, mean ± S.E.M., n = 3–4, read-out: Ki (μM) LAT2): 87.6 ± 11.9 µM; Vmax of efflux (% radioactivity/min) ([6]; LAT2, L-[14C]alanine efflux, mean ± S.E.M., n = 3): 39.65 ± 0.44 % radioactivity/min; LAT2-mediated L-[14C]alanine efflux induced (in words) ([6]; compounds at 10, 30, 100 μM): comparable to that of Phe; Ki ([1]; L-[14C]leucine uptake, HEK293-hLAT1, mean ± S.E.M., n = 3–4, read-out: Ki (μM) LAT1): 9.56 ± 1.67 µM; Ki ratio (LAT2/LAT1) ([1]; LAT1 selectivity, LAT2 Ki over LAT1 Ki): 9.16
N[C@@H](Cc1cccc(Cl)c1)C(=O)O [3-Cl-Phe] | 3-F-Phe < 3-Cl-Phe | 3-F-Phe < 3-Cl-Phe | –
